According to patent EP0700399B1, “36-DERIVATIVES OF RIFAMYCINS AND THEIR USE AS ANTIMICROBIAL AGENTS” (GRUPPO LEPETIT S.P.A., priority 1993, dated 1994):
Read-outs that look alike come from different tables or passages of the source.

Columns and labels:
Assay in all cases: MIC by broth microdilution
[1] = test system: Staph. haemolyticus rifa-r^(2); assay type: cell-based; details: Staphylococcus haemolyticus, read-out: MIC of the compounds
[2] = test system: Esch. coli K12 rifa-r^(1); assay type: cell-based, Escherichia coli; details: Escherichia coli, read-out: MIC of the compounds
[3] = test system: Bacteroides fragilis ATCC 23745; assay type: cell-based; details: Bacteroides fragilis, ATCC23745; internal code L1010; anaerobic, 48 hours; read-out: MIC of the compounds
Staphylococcus aureus = assay type: cell-based; details: Staphylococcus aureus; internal code L165; read-out: MIC of the compounds
[4] = test system: Propionibact. acnes ATCC 6919; assay type: cell-based, Propionibacterium acnes; details: Cutibacterium acnes, ATCC6919; internal code L1014; anaerobic, 48 hours; read-out: MIC of the compounds
Staph. aureus rifa-r^(2) = assay type: cell-based; details: Staphylococcus aureus, read-out: MIC of the compounds
[5] = test system: Staph. epidermidis ATCC 12228; assay type: cell-based; details: Staphylococcus epidermidis, ATCC12228; internal code L147; read-out: MIC of the compounds
Escherichia coli = assay type: cell-based; details: Escherichia coli; internal code L47; read-out: MIC of the compounds
Streptococcus pyogenes = assay type: cell-based; details: Streptococcus pyogenes; internal code L49; read-out: MIC of the compounds
[6] = test system: Enterococc. faecalis ATCC 7080; assay type: cell-based, Enterococcus faecalis; details: Enterococcus faecalis, ATCC7080; internal code L149; read-out: MIC of the compounds
Strept. pneumoniae = assay type: cell-based; details: Streptococcus pneumoniae; internal code L44; read-out: MIC of the compounds
[7] = test system: Haemoph. influenzae ATCC 19418; assay type: cell-based, Haemophilus influenzae; details: Haemophilus influenzae, ATCC19418; internal code L970; 5% carbon dioxide, 48 hours; read-out: MIC of the compounds
[8] = test system: Proteus vulgaris ATCC 881; assay type: cell-based; details: Proteus vulgaris, ATCC881; internal code L79; read-out: MIC of the compounds
[9] = test system: Esch. coli K12 hyperpermeable; assay type: cell-based, Escherichia coli; details: Escherichia coli, read-out: MIC of the compounds
Neisseria gonorrhoeae = assay type: cell-based; details: Neisseria gonorrhoeae; internal code L997; 5% carbon dioxide, 48 hours; read-out: MIC of the compounds
[10] = test system: Pseudomonas aerug. ATCC10145; assay type: cell-based, Pseudomonas aeruginosa; details: Pseudomonas, ATCC10145; internal code L4; read-out: MIC of the compounds
Esch. coli K12 wild type = assay type: cell-based; details: Escherichia coli, K12WILDTYPE, internal code G210, read-out: MIC of the compounds

With `CO[C@H]1/C=C/O[C@@]2(C)Oc3c(C)c(O)c4c(c3C2=O)C(=O)C=C(NC(=O)/C(C)=C\C=C\[C@H](C)[C@H](O)[C@@H](C)[C@@H](O)[C@@H](C)[C@H](OC(=O)CF)[C@@H]1C)C4=O` [Compound C2, 36-Fluororifamycin S] the MIC ([1]; internal code L602, rifampicin resistant strain, highly resistant) was ≥ 128 µg/mL, the MIC ([2]; internal code G1064, rifampicin resistant strain, moderately resistant) was > 128 µg/mL and the MIC [3] was 2 µg/mL. It also gave an MIC (Staphylococcus aureus) of 0.015 µg/mL, an MIC [4] of 0.13 µg/mL and an MIC (Staph. aureus rifa-r^(2); internal code L1282, rifampicin resistant strain, highly resistant) of 64 µg/mL. The MIC [5] was 0.015 µg/mL, the MIC (Escherichia coli) was 128 µg/mL and the MIC (Streptococcus pyogenes) was 0.008 µg/mL. It also gave an MIC [6] of 1 µg/mL, an MIC (Strept. pneumoniae) of 0.015 µg/mL and an MIC [7] of 2 µg/mL. For the same molecule, the MIC [8] was 32 µg/mL, the MIC ([9]; internal code G1640, hyperpermeable) was 1 µg/mL and the MIC (Neisseria gonorrhoeae) was 2 µg/mL. The MIC [10] was 64 µg/mL and the MIC (Esch. coli K12 wild type) was ≥ 128 µg/mL.
For `CO[C@H]1/C=C/O[C@@]2(C)Oc3c(C)c(O)c4c(c3C2=O)C(=O)C=C(NC(=O)/C(C)=C\C=C\[C@H](C)[C@H](O)[C@@H](C)[C@@H](O)[C@@H](C)[C@H](OC(=O)CSC)[C@@H]1C)C4=O` [Compound C4, 36-Methylthiorifamycin S], the MIC [1] was 128 µg/mL, the MIC [2] was > 128 µg/mL and the MIC [3] was 0.5 µg/mL. The MIC (Staphylococcus aureus) was 0.008 µg/mL, the MIC [4] was 0.06 µg/mL and the MIC (Staph. aureus rifa-r^(2)) was 32 µg/mL. The MIC [5] was 0.001 µg/mL, the MIC (Escherichia coli) was 64 µg/mL and the MIC (Streptococcus pyogenes) was 0.008 µg/mL. For the same molecule, the MIC [6] was 0.5 µg/mL, the MIC (Strept. pneumoniae) was 0.002 µg/mL and the MIC [7] was 1 µg/mL. The MIC [8] was 8 µg/mL, the MIC [9] was 0.51 µg/mL and the MIC (Neisseria gonorrhoeae) was 0.5 µg/mL. The MIC [10] was 32 µg/mL and the MIC (Esch. coli K12 wild type) was 64 µg/mL.
In the case of `CO[C@H]1/C=C/O[C@@]2(C)Oc3c(C)c(O)c4c(c3C2=O)C(=O)C=C(NC(=O)/C(C)=C\C=C\[C@H](C)[C@H](O)[C@@H](C)[C@@H](O)[C@@H](C)[C@H](OC(=O)CI)[C@@H]1C)C4=O` [Compound C10, 36-Iodorifamycin S], the MIC [1] is reported as 64 µg/mL, the MIC [2] is reported as ≥ 128 µg/mL and the MIC [3] is reported as 0.5 µg/mL. The MIC (Staphylococcus aureus) was 0.06 µg/mL, the MIC [4] was 0.13 µg/mL and the MIC (Staph. aureus rifa-r^(2)) was 32 µg/mL. It also gave an MIC [5] of 0.06 µg/mL, an MIC (Escherichia coli) of 64 µg/mL and an MIC (Streptococcus pyogenes) of 0.015 µg/mL. The MIC [6] was 2 µg/mL, the MIC (Strept. pneumoniae) was 0.03 µg/mL and the MIC [7] was 4 µg/mL. For the same molecule, the MIC [8] was 32 µg/mL, the MIC [9] was 1 µg/mL and the MIC (Neisseria gonorrhoeae) was 16 µg/mL. It also gave an MIC [10] of 32 µg/mL and an MIC (Esch. coli K12 wild type) of 128 µg/mL.
`CCN(CC)CC(=O)O[C@H]1[C@H](C)[C@H](O)[C@H](C)[C@@H](O)[C@@H](C)/C=C/C=C(/C)C(=O)NC2=CC(=O)c3c(c(O)c(C)c4c3C(=O)[C@@](C)(O/C=C/[C@H](OC)[C@H]1C)O4)C2=O` [Compound C12, 36-Diethylaminorifamycin S] was tested, and the MIC [1] was 64 µg/mL, the MIC [2] was > 128 µg/mL and the MIC [3] was 2 µg/mL. It also gave an MIC (Staphylococcus aureus) of 0.03 µg/mL, an MIC [4] of 0.5 µg/mL and an MIC (Staph. aureus rifa-r^(2)) of 32 µg/mL. It also gave an MIC [5] of 0.008 µg/mL, an MIC (Escherichia coli) of 32 µg/mL and an MIC (Streptococcus pyogenes) of 0.06 µg/mL. The MIC [6] was 0.25 µg/mL, the MIC (Strept. pneumoniae) was 0.03 µg/mL and the MIC [7] was 1 µg/mL. For the same molecule, the MIC [8] was 8 µg/mL, the MIC [9] was ≤ 0.13 µg/mL and the MIC (Neisseria gonorrhoeae) was 1 µg/mL. It also gave an MIC [10] of 32 µg/mL and an MIC (Esch. coli K12 wild type) of 64 µg/mL.
